Test results as given in article PMC7661526, “Antibiofilm effects of N,O-acetals derived from 2-amino-1,4-naphthoquinone are associated with downregulation of important global virulence regulators in methicillin-resistant Staphylococcus aureus” (Scientific Reports, 2020).
Values after ≈ are worked out from the molar mass of the structure shown. Values joined by “and” are separate entries in the source; they are usually repeats but may differ in a detail not shown here. Equal entries are not always repeated. Where two headings read alike, the source gives them in different places.

Columns and labels:
S. aureus ATCC 25923 [1] = assay: MIC, broth microdilution; format: cell-based, Staphylococcus aureus
Description: (§1) Strain representatives of six globally spread clones/lineages of MRSA were used in this study to test the antimicrobial activity of the N,O-acetal derivatives against MRSA: NY/Japan-USA100/ST5-SCCmecII (strain CR15-071), USA300/ST8-SCCmecIV (strain USA300-0114), USA400/ST1-SCCmecIV (strain USA400-0051), Brazilian epidemic clone-BEC/ST239-SCCmecIII (strain BMB9393), pediatric clone-USA800/ST5-SCCmecIV (strain USA800-0179), and OSPC-USA1100/ST30-SCCmecIV (strain 07-040). The S. aureus ATCC 25923 was used as a control for the experiment of drug susceptibility. […] For biofilm production, tryptic soy broth (TSB; BD, Franklin Lakes, NJ, USA) was supplemented with 1% (w/v) glucose (TSB-Glu). Tryptic soy agar (TSA; BD) was used for bacterial growth. The Mueller-Hinton broth (MHB; BD) and Mueller-Hinton agar (MHA; BD) was used for susceptibility tests. All strains were maintained in 10% (v/v) glycerol stocks and stored at − 80 °C.
(§2) The antibacterial activity of 6a and its derivatives 7a, 7b, and 7c was tested as previously described using paper disks impregnated with each compound[13]. The derivatives were also analyzed quantitatively using microdilution assays in 96-well inert polystyrene microtiter plates (Nuclon; Nalge Nunc International, Rochester, NY, USA) to determine the minimal inhibitory concentration (MIC)[14]. Biological control, as well as growth conditions, were performed following CLSI recommendation[15],[16]. […] Controls were also performed using 2% (v/v) DMSO only.

MRSA BEC (BMB9393) = assay: microbe, parasite or virus in culture; format: cell-based, Staphylococcus aureus
Method: (§3) For biofilm production, tryptic soy broth (TSB; BD, Franklin Lakes, NJ, USA) was supplemented with 1% (w/v) glucose (TSB-Glu). Tryptic soy agar (TSA; BD) was used for bacterial growth. The Mueller-Hinton broth (MHB; BD) and Mueller-Hinton agar (MHA; BD) was used for susceptibility tests. All strains were maintained in 10% (v/v) glycerol stocks and stored at − 80 °C.
as §2, with “The” for “The antibacterial activity of 6a and its derivatives 7a, 7b, and 7c was tested as previously described using paper disks impregnated with each compound[13]. The”

[2] = test system: MRSA NY/Japan-USA100 (CR15-071); assay: MIC, broth microdilution; format: cell-based, Staphylococcus aureus
Method: as §3
as §2, with “The” for “The antibacterial activity of 6a and its derivatives 7a, 7b, and 7c was tested as previously described using paper disks impregnated with each compound[13]. The”

[3] = test system: MRSA OSPC-USA1100 (07-040); assay: MIC, broth microdilution; format: cell-based, Staphylococcus aureus
Method: as §3
as §2, with “The” for “The antibacterial activity of 6a and its derivatives 7a, 7b, and 7c was tested as previously described using paper disks impregnated with each compound[13]. The”

[4] = test system: MRSA Pediatric-USA800 (USA800-0179); assay: MIC, broth microdilution; format: cell-based, Staphylococcus aureus
Method: as §3
as §2, with “The” for “The antibacterial activity of 6a and its derivatives 7a, 7b, and 7c was tested as previously described using paper disks impregnated with each compound[13]. The”

[5] = test system: MRSA USA300 (USA300-0114); assay: MIC, broth microdilution; format: cell-based, Staphylococcus aureus
Method: as §3
as §2, with “The” for “The antibacterial activity of 6a and its derivatives 7a, 7b, and 7c was tested as previously described using paper disks impregnated with each compound[13]. The”

[6] = test system: MRSA USA400 (USA400-0051); assay: MIC, broth microdilution; format: cell-based, Staphylococcus aureus
Method: as §3
as §2, with “The” for “The antibacterial activity of 6a and its derivatives 7a, 7b, and 7c was tested as previously described using paper disks impregnated with each compound[13]. The”

S. aureus ATCC 25923 [7] = assay: Disk diffusion test; format: cell-based, Staphylococcus aureus
Description: as §1, §2

[8] = test system: MRSA ST5-SCCmecII (USA100); assay: Disk diffusion test; format: cell-based, Staphylococcus aureus
[9] = test system: MRSA ST8-SCCmecIV (USA300); assay: Disk diffusion test; format: cell-based, Staphylococcus aureus
[10] = test system: MRSA (ST1-SCCmecIV) (USA400); assay: Disk diffusion test; format: cell-based, Staphylococcus aureus
[11] = test system: MRSA ST30-SCCmecIV (USA1100); assay: Disk diffusion test; format: cell-based, Staphylococcus aureus
[12] = test system: MRSA ST5-SCCmecIV (USA800); assay: Disk diffusion test; format: cell-based, Staphylococcus aureus
[13] = test system: MRSA strain BMB9393 biofilm; assay: Biofilm development on polystyrene, crystal violet; format: cell-based, Staphylococcus aureus; conditions: 1/4MIC (7b 32 µg/mL, 7c 16 µg/mL); strain BMB9393, 24 h, crystal violet
Method: Biofilms were formed on polystyrene surfaces using the BEC representative, strain BMB9393. […] The same volume of the bacterial culture in TSB-Glu (37 °C/18 h; at 250 rpm) diluted 1/100 in the same broth was added to the wells. After incubation (37 °C/24 h), supernatants were gently removed, rinsed with distilled water, and treated with crystal violet solution as described. […] Eight independent tests with three replicates each were performed. Controls were inoculated with the same bacterial inoculum but using only TSB-Glu with 2% (v/v) DMSO, final concentration.

mecA = assay: Real-time RT-qPCR of biofilm-associated genes; format: cell-based, Staphylococcus aureus
fnbA = assay: Real-time RT-qPCR of biofilm-associated genes; format: cell-based, Staphylococcus aureus
spa = assay: Real-time RT-qPCR of biofilm-associated genes; format: cell-based, Staphylococcus aureus
rnaIII = assay: Real-time RT-qPCR of global regulators; format: cell-based, Staphylococcus aureus
sigB = assay: Real-time RT-qPCR of global regulators; format: cell-based, Staphylococcus aureus
atlA = assay: Autolytic system: atlA real-time qRT-PCR; format: cell-based, Staphylococcus aureus
[14] = test system: MRSA strain BMB9393 biofilm; assay: Confocal laser scanning microscopy (CLSM) of biofilm; format: cell-based, Staphylococcus aureus; conditions: 1/4MIC (7b 32 µg/mL, 7c 16 µg/mL); SYTO 9; compared with untreated biofilms
Method: For CLSM experiments, after 24 h of incubation, the supernatant containing planktonic cells was gently removed, and biofilm treated with 25 nM SYTO 9 DNA-intercalating stain (Invitrogen; Carlsbad, CA, EUA), as previously described. Before visualization, SYTO 9 solution was removed and the material visualized using a confocal laser scanning microscope (Model LSM510 Carl Zeiss Meditec; Jena, Germany). The microscope was configured with the argon laser (458 nm/477 nm/488 nm/514 nm). The images were randomly captured with the […]. Controls were performed using 2% (v/v) DMSO only (final concentration). Three independent experiments were performed in quadruplicate.

[15] = Table 2, used for SI, strain not given, values of 6a-7c equal those for BEC (BMB9393)

Structure (SMILES) | MIC (MRSA BEC (BMB9393); [15]) [µg/mL] | Inhibition zone (S. aureus ATCC 25923 [7]) [mm] | Inhibition zone [8] [mm] | Inhibition zone [9] [mm] | Inhibition zone [10] [mm] | Inhibition zone [11] [mm] | Inhibition zone [12] [mm] | Reduction of accumulated biofilm matrix [13] | mecA expression (mecA) | Reduction of fnbA expression (fnbA) | Reduction of spa expression (spa) [%] | Reduction of RNAIII transcripts (rnaIII) [%] | Increase of sigB transcripts (sigB) | Increase in atlA transcripts (atlA) | Biofilm accumulation by CLSM [14] | Reduction of hla expression (hla) [%] | also measured
CCOCNC1=CC(=O)c2ccccc2C1=O [7b, 2-(ethoxymethyl)-amino-1,4-naphthoquinone] | 128 (≈ 554 µM) | 12.5±3.5 | 13±2.0 | 12±2.0 | 13±1.0 | 13±1.0 | 13±0.5 | 87.4% ± 1.9% and 88% | not significantly affected | 89.3% ± 1.5% | 95.4 ± 0.9 | 88.0 ± 1.1 | did not affect | 3.5 times | decrease biofilm accumulation massively | 90.0 ± 0.6 | MIC (S. aureus ATCC 25923 [1]; Staphylococcus aureus, ATCC25923, control strain S. aureus ATCC 25923, read-out: MIC): 64 µg/mL (≈ 277 µM); MIC (MRSA BEC (BMB9393); Staphylococcus aureus, MRSA): 128 µg/mL (≈ 554 µM); MIC ([2]; Staphylococcus aureus): 128 µg/mL (≈ 554 µM); MIC ([3]; Staphylococcus aureus, MRSA): 256 µg/mL (≈ 1110 µM); MIC ([4]; Staphylococcus aureus): 256 µg/mL (≈ 1110 µM); MIC ([5]; Staphylococcus aureus): 64 µg/mL (≈ 277 µM); MIC ([6]; Staphylococcus aureus): 128 µg/mL (≈ 554 µM)
C#CCOCNC1=CC(=O)c2ccccc2C1=O [7c, 2-(propynyloxymethyl)-amino-1,4-naphthoquinone] | 64 (≈ 265 µM) | 14±3.4 | 12±1.5 | 13±1.3 | 11±0.8 | 15±0.8 | 13±1.0 | 75.6% ± 3.7% and 75% | not significantly affected | 24.64% ± 3.5% | 74.82 ± 4.9 | 70.6 ± 2.2 | 57.22 ± 5.2% | three-fold increase | decrease biofilm accumulation massively | 86.5 ± 1.0 | MIC (S. aureus ATCC 25923 [1]; control strain S. aureus ATCC 25923): 16 µg/mL (≈ 66.3 µM); MIC (MRSA BEC (BMB9393); broth microdilution, BEC (BMB9393)): 64 µg/mL (≈ 265 µM); MIC ([2]; broth microdilution, NY/Japan-USA100 (CR15-071)): 128 µg/mL (≈ 531 µM); MIC ([3]; broth microdilution, OSPC-USA1100 (07-040)): 128 µg/mL (≈ 531 µM); MIC ([4]; broth microdilution, Pediatric-USA800 (USA800-0179)): 64 µg/mL (≈ 265 µM); MIC ([5]; broth microdilution, USA300 (USA300-0114)): 64 µg/mL (≈ 265 µM); MIC ([6]; broth microdilution, USA400 (USA400-0051)): 64 µg/mL (≈ 265 µM)
